Data reported in US20040191297A1, “Carotenoid formulation” (priority 1997, published 2004).

Key:
α-tocopherol = test: Liver vitamin E assay; format: in vivo, Fischer 344 rats
retinol = test: Liver vitamin A assay; format: in vivo, Fischer 344 rats; details: male
[1] = Dietary lycopene stability, AIN-76A diet at 4 °C in the dark; format: physicochemical; details: for % (diet concentration 744 μg/g as 100%) / Lycopene concentration: 4 °C dark; for Lycopene concentration: AIN-76A diet
Experimental: The stability of the lycopene suspension once incorporated into the diet was assessed in two ways. The first was by placing the diet containing the suspension at 4° C. in the dark for a period of 3 weeks (Table 8A,B).
At various time points, a diet sample was taken and lycopene was extracted as follows: Approximately 0.5 to 1.0 g of sample was added to a 15 ml volume of extraction solvent consisting of 40% acetonitrile, 20% hexane, 20% methanol and 20% methylenechloride. The mixture was sonicated for 2 minutes and allowed to stand for 5 minutes. The reddish-orange clear supernatant was then decanted. This process was repeated 4 times, at which time the supernatant was colorless. Solvent was then added to a volume of 25 to 100 ml, the mixture centrifuged, and the supernatant decanted. All supernatants were then mixed. The above solvent serves two purposes; first, it is the most efficient mixture for lycopene, and second, it is the same solvent used for injecting lycopene samples into the HPLC.

[2] = Carotenoid content of Lycopene Suspension-supplemented diets after 7 months storage; format: physicochemical; details: for Carotenoid content of diet: stored at −20 °C for 7 months
Experimental: When the Lycopene Suspension (Henkel Corporation, La Grange, Ill.) was extracted by organic extraction methods, the major carotenoid was lycopene, but a number of other carotenoids were known to be present in tomatoes, α- and β-Carotene, phytofluene and phytoene were also present (FIGS. 6 & 7). The quantitative profile of carotenoids in the Lycopene Suspension was carried out using an HPLC system as described above, equipped with a photodiode array detector. The six major components can be seen in Table 7.
(Table 10). Note that all the major carotenoids plus the lycopene metabolite present in the Lycopene Suspension are present in the diets in the same relative proportions. However, the net loss of lycopene over 7 months was 66%, 38%, 40%, 44% and 60%, in treatment groups 1-5, respectively; in contrast, β-carotene concentrations declined by only 10% of original values over the same time period.

CC(C)=CCC/C(C)=C/C=C/C(C)=C/C=C/C(C)=C/C=C/C=C(C)/C=C/C=C(C)/C=C/C=C(\C)CCC=C(C)C [Lycopene]
Liver α-tocopherol (α-tocopherol; female, Group 2, lycopene 512 mg/kg diet): 38 μg/gm | Liver α-tocopherol (α-tocopherol; male, Group 7, lycopene 1280 mg/kg diet): 28 μg/gm | Liver α-tocopherol (α-tocopherol; male, Group 8, lycopene 512 mg/kg diet): 8 μg/gm | Liver α-tocopherol (α-tocopherol; male, Group 9, lycopene 256 mg/kg diet): 23 μg/gm | Liver α-tocopherol (α-tocopherol; male, Group 11, lycopene 51 mg/kg diet): 14 μg/gm | Liver retinol (retinol; Group 7, lycopene 1280 mg/kg diet): 388 μg/gm | Liver retinol (retinol; Group 8, lycopene 512 mg/kg diet): 119 μg/gm | Liver retinol (retinol; Group 9, lycopene 256 mg/kg diet): 584 μg/gm | Liver retinol (retinol; Group 11, lycopene 51 mg/kg diet): 454 μg/gm | % (diet concentration 744 μg/g as 100%) ([1]; 1 day): 101% | % (diet concentration 744 μg/g as 100%) ([1]; 8 days): 98% | % (diet concentration 744 μg/g as 100%) ([1]; 14 days): 90% | % (diet concentration 744 μg/g as 100%) ([1]; 21 days): 72% | amount remaining relative to day 1 ([1]; 4 °C in the dark, 3 weeks): about 72% | decomposition ([1]; 4 °C in the dark, two weeks): about 10% | stability in the diet ([1]; 21 days in the dark at 4 °C): stable | Lycopene concentration ([1]; 1 day in refrigerator): 748 µg/g | Lycopene concentration ([1]; 8 days in refrigerator): 728 µg/g | Lycopene concentration ([1]; 14 days in refrigerator): 672 µg/g | Lycopene concentration ([1]; 21 days in refrigerator): 534 µg/g | Carotenoid content of diet ([2]; Diet 1, 2.5 mM/kg diet): 472 μg/gm (ppm) | Carotenoid content of diet ([2]; Diet 2, 1.0 mM/kg diet): 348 μg/gm (ppm) | Carotenoid content of diet ([2]; Diet 3, 0.5 mM/kg diet): 168 μg/gm (ppm) | Carotenoid content of diet ([2]; Diet 4, 0.25 mM/kg diet): 92 μg/gm (ppm) | Carotenoid content of diet ([2]; Diet 5, 0.10 mM/kg diet): 22 μg/gm (ppm) | net loss over 7 months ([2]; diet of treatment group 1, 7 months storage): 66% | net loss over 7 months ([2]; diet of treatment group 2, 7 months storage): 38% | net loss over 7 months ([2]; diet of treatment group 3, 7 months storage): 40% | net loss over 7 months ([2]; diet of treatment group 4, 7 months storage): 44% | net loss over 7 months ([2]; diet of treatment group 5, 7 months storage): 60%
